The text below walks through data of US9999596B2 (priority 2004, dated 2018).

Data set [1] relates to human umbilical venular endothelial cells. As to conditions: cited from earlier work.
The subject of data set [2] is A2780 (sensitive) human ovarian carcinoma cells. The data set can be described thus: cells. It counts as cell-based. As to conditions: A2780, 48 h, read-out: IC50 (nM) A2780.
Data set [3] relates to A2780/AD (multidrug resistant) human ovarian carcinoma cells. Put plainly: cells. It counts as cell-based. The following applies: A2780AD, 48 h, read-out: IC50 (nM) A2780/AD.
The conditions of data set [4]: female, Fischer 344, rat, in vivo.
The nature of the next data set: in vivo. As to conditions: female, Fischer 344, rat.
In the next data set the test system is Mat B-III tumors. Put plainly: Pharmacodynamic tumor-growth delay study.

Read-outs that look alike come from different tables or passages of the source.

Text for Mat B-III tumors: Mat B-III cells were obtained from American Type Culture Collection (Rockville, Md.). The cells were maintained in culture in vitro in RMPI medium supplemented with 10% fetal bovine serum, 100 units/ml penicillin-streptomycin sulfate, 2% sodium bicarbonate and 1% non-essential amino acids.
Female Fischer 344 rats (160-180 g) were purchased from Hilltop Laboratories (Scottdale, Pa.) and allowed to acclimate for one week. The rats were housed, two per cage and tagged to facilitate identification. Mat B-III cells grown in serum-containing medium were washed with phosphate buffer and trypsinized for 5 minutes. The cells were collected and centrifuged for 5 minutes. The cell pellet was resuspended in Dulbecco's phosphate buffer (DPBS) and centrifuged as above. This process was repeated three times. Finally the cell pellet (2×10^6 cells/ml) was resuspended and the cells were injected (0.5 ml=1×10^6 cells) subcutaneously into the back of the rats. The rats were weighed daily and examined for tumor development and distress. The tumor size was measured in two dimensions using calipers and the tumor mass was calculated as described in Equation 4.5.
Once the tumors reached a size of approximately 1 cm^3, (500-1000 mg) the rats were randomized into five experimental groups. […] All treatments were administered s.c. in the vicinity of the tumor. The rats were monitored daily for weight loss, tumor growth, skin lesions, distress or ascites. Body weight loss and lethal toxicity were taken into account when evaluating the toxic effects induced by the drug treatment. […]
Therefore, to adequately compare the various treatments, the rats were divided into two groups of 16 rats each based on the size of the tumors on day 10 following inoculation (small tumor group: size ˜500 mg and large tumor group: size ˜1000 mg). […] The dimensions of the tumors were measured prior to and post administration of the treatments in the case of the hydrogel groups to account for the volume of hydrogel.

Regarding `CC[C@@]1(O)C(=O)OCc2c1cc1n(c2=O)Cc2cc3ccccc3nc2-1` [CPT, Camptothecin], the “growth of human umbilical venular endothelial cells in vitro” value in data set [1] is “inhibited the growth”.

Take `CC[C@@]1(O)C(=O)OCc2c1cc1n(c2=O)Cc2cc3c(CN(C)C)c(O)ccc3nc2-1` [TPT, 9-amino-dimethyl-10-hydroxycamptothecin]: the IC50 in data set [2] worked out at 25.3 ± 1.4 nM. Moreover, the IC50 in data set [3] turned out to be 55.9 ± 2.67 nM. The “MAT (mean absorption time)” value in data set [4] (10 mg/kg) came out at 10.44 h. In data set [4] (iv, 10 mg/kg), the Alpha amounted to 0.84 h⁻¹, the Cl was found to be 444.59 mL/h, the mean residence time (MRT) came out at 3.92 h and the Vz/F was found to be 3552.68 mL. The kel in data set [4] (iv, 10 mg/kg) stood at 0.14 h⁻¹. In data set [4] (sc), the “dose fraction (F) that appeared in the systemic circulation” value came out at 92%. In addition, in data set [4] (sc, 10 mg/kg), the Vz was 5483.75 mL, the kel amounted to 0.10 h⁻¹ and the tmax amounted to 1.56 h. Also, in data set [1], the “growth of human umbilical venular endothelial cells in vitro” value was “inhibited the growth”. In “in vivo” (iv, 10 mg/kg), this compound came in with an AUC(0-inf) of 5910 ng·h/mL, an exposure AUC(0-t) of 5790 ng·h/mL, a bioavailability of 100% and an exposure (AUC) of 5960 ng·h/mL. In the data set “in vivo” (iv, 10 mg/kg), this compound displayed a peak concentration (Cmax) of 4360 ng/mL and a mean residence time MRT of 2.95 h. Besides, the half-life in the data set “in vivo” (iv, 10 mg/kg, Alpha-t1/2) is 0.84 ± 0.07 h. Besides, the clearance in the data set “in vivo” (iv, 10 mg/kg, Cl) is 7.55 mL/min. For the same compound, in “in vivo” (iv, 10 mg/kg, Vss), the Vd was determined as 1.32 L. The volume of distribution (Vd) in “in vivo” (iv, 10 mg/kg, Vz) was 3.55 L. The compound also showed a half-life in the data set “in vivo” (iv, 10 mg/kg, t1/2) of 6.16 ± 0.56 h. Besides, the bioavailability in “in vivo” (sc) is 98.8%. In “in vivo” (sc, 10 mg/kg), this compound yielded an area under the curve AUC(0-inf) of 5380 ng·h/mL, an exposure AUC(0-t) of 4470 ng·h/mL, a bioavailability of 91.8% and an AUC of 5800 ± 894 ng·h/mL. Besides, in “in vivo” (sc, 10 mg/kg), the peak concentration (Cmax) was 468 ± 177 ng/mL and the MRT came out at 13.4 h. For the same compound, the half-life in the data set “in vivo” (sc, 10 mg/kg, Ka-t1/2) is 0.32 ± 0.05 h. The compound also returned a Vd/F in the data set “in vivo” (sc, 10 mg/kg, Vss/F) of 6.07 L. This compound also showed a Vd/F in “in vivo” (sc, 10 mg/kg, Vz/F) of 5.97 L. The same compound gave a half-life in the data set “in vivo” (sc, 10 mg/kg, t1/2) of 6.42 ± 1.99 h. This compound also had a tmax in the data set “in vivo” (sc, 10 mg/kg, tmax) of 2.67 h. For the same compound, the “effect on tumor size, small tumor group” value with Mat B-III tumors (5 mg/kg s.c., tumors ~500 mg, 16 days) is recorded as “very effective initially in reducing tumor size”. Moreover, in the data set on Mat B-III tumors (5 mg/kg s.c., tumors ~1000 mg), the “effect on tumor size, large tumor group” value was “initially effective”. Besides, the “appearance of resected tumors” value in the data set with Mat B-III tumors (at completion of study) was “highly vascularized and firm”.

In general, MRT refers to the average time that molecules of a dose stay in the body. One may read the AUC(0-inf) as total exposure, with the tail of the curve extrapolated. Broadly, the AUC(0-t) is exposure summed from dosing to a finite time, without extrapolation to infinity. The bioavailability is the share of a dose that reaches the circulation, judged against a reference dose that is usually intravenous. A higher bioavailability goes with much systemic uptake. Usually AUC stands for concentration integrated over time. The term half-life denotes the time in which the quantity being followed falls by half. Lower therefore signals rapid decline. In general, clearance refers to a measure of how efficiently the substance is removed, as volume per time. A low value points to a low capacity for elimination. Broadly, the Cmax is the highest concentration seen after dosing. What is called Vd is the apparent volume that relates the amount in the body to the concentration in plasma or blood. A word on the Vd/F: it is the volume of distribution divided by bioavailability.
